Patent publication US20240076347A1, “METHODS FOR PREVENTING FUNGAL INFECTIONS” (Cidara Therapeutics, Inc., priority 2016, published 2024)
In brackets after ≈: the same amount, converted by molar mass. Several values for one entry are separate records, joined by “and”; a condition that tells them apart may be missing. Identical values can stand only once. Entries after “also recorded” stand apart in the source; their conditions may differ. Like-named read-outs stand apart in the source and are kept apart here. Numbered stars: 1 amine (or outer) side, 2 acyl side, 3 side chain; on linkers, the order of the positions; unused ones are H or OH. Bridge positions count the residues as written; N and C are the ends. Square brackets hold non-standard residues; d marks the D form. Peptide text beside a SMILES is read from it. * marks the point of attachment. pTerphenylCO(4''-OnC5H11) = CCCCCOc1ccc(-c2ccc(-c3ccc(C(=O)*)cc3)cc2)cc1; Orn(4R-OH,5R-OH) = O=C([C@H](C[C@@H](O)[C@@H](O)N[*:3])N[*:1])[*:2]; hTyr(3S-OH,4S-OH) = N[C@H](C(=O)O)[C@H](O)[C@@H](O)c1ccc(O)cc1; Pro(3S-OH,4S-Me) = C[C@H]1CN[C@H](C(=O)O)[C@H]1O; Hyp = O=C(O)[C@@H]1C[C@@H](O)CN1

What was measured:
[1] = system: C. albicans; experiment: In vitro susceptibility testing (CLSI M27-A3); assay type: cell-based; conditions: Candida albicans, 24 h
Procedure: (§1) Strains. Ten clinical Candida strains were used for the in vivo treatment studies, including four C. albicans, three C. glabrata, and three C. parapsilosis strains (Table 18). This group was selected to encompass phenotypic variability in susceptibility to triazoles and echinocandins and based on similar fitness in the animal model as defined by the amount of growth in control animals over 24 h. The organisms were maintained, grown, and quantified on Sabouraud's dextrose agar (SDA) plates.
(§2) In vitro susceptibility testing. All isolates were tested in accordance with the standards in CLSI document M27-A3. The MICs were determined visually after 24 h of incubation as the lowest concentration of drug that causes a significant diminution (≥50%) of growth compared to controls. MICs were determined on three separate occasions in duplicate.

[2] = system: C. parapsilosis; experiment: In vitro susceptibility testing (CLSI M27-A3); assay type: cell-based, Candida parapsilosis; conditions: Lodderomyces parapsilosis, 24 h
Procedure: as §1, §2

[3] = system: C. glabrata; experiment: In vitro susceptibility testing (CLSI M27-A3); assay type: cell-based, Candida glabrata; conditions: Nakaseomyces glabratus, 24 h
Procedure: as §1, §2

[4] = system: A. fumigatus AF293; experiment: Pulmonary aspergillosis in neutropenic ICR mice (Examples 14, 15), prophylaxis, survival; assay type: in vivo, Aspergillus fumigatus
Procedure: Pulmonary aspergillosis: ICR mice (10/grp) were made neutropenic by cyclophosphamide on Day −4 (150 mg/kg), and CPM/cortisone on Day −1 (150/175 mg/kg). Intranasal infection with A. fumigatus AF293 (10^5 CFU/mouse) on Day 0. Prophylaxis CD101 as a single dose (IP; 5, 10, 20 mg/kg) or posaconazole (PO; 2 and 10 mg/kg) 1 day prior to infection. Survival monitored for 10 days.
Pulmonary aspergillosis: ICR mice (10/grp) were made neutropenic by cyclophosphamide on Day −4 (150 mg/kg), and cyclophosphamide/cortisone was given on Day −1 (150/175 mg/kg). Intranasal challenge with A. fumigatus AF293 (10^5 CFU/mouse) was initiated on Day 0 and prophylaxis with CD101 as a single dose (IP; 5, 10, 20 mg/kg) or posaconazole (PO; 2 and 10 mg/kg) was started 1 day prior to infection. Survival was monitored for 10 days.

[5] = system: Aspergillus fumigatus strain AF293; experiment: Murine model of pulmonary aspergillosis (Example 16), survival and lung burden; assay type: in vivo; conditions: for Group Geometric mean / Log10 Group Geometric mean / Log10 reduction from vehicle control: terminal lung burden
Procedure: Animal strain and housing. Mice used in these studies were supplied by Charles River (Margate UK) and were specific pathogen free. The strain of mice used was ICR (also known as CD1 Mice) which is a well characterized outbred murine strain. Male mice were 11-15 g on receipt and allowed to acclimatize for at least 7 days.
Immunosuppression. Mice were immunosuppressed on Day −4 with 150 mg/kg cyclophosphamide administered intraperitoneally (IP), and on Day −1 with 150 mg/kg cyclophosphamide IP and 175 mg/kg cortisone acetate administered subcutaneously (SC). To prevent bacterial infection due to the immunosuppression mice were given once daily 50 mg/kg ceftazidime.
Preparation of Organism and Infection. A. fumigatus strain AF293 inoculum was prepared from spore cultures grown on Sabouraud Dextrose agar (SAB) containing 50 μg/mL chloramphenicol (SABC) in vented tissue culture flasks. Following incubation for 7-10 days at 30° C., spore cultures were washed in sterile phosphate buffered saline (PBS) containing 0.05% Tween 80. Spore count was determined using a haemocytometer and spores were diluted in PBS to ˜6.9×10^6 CFU/mL. Inoculum concentration was confirmed by quantitative culture onto SABC agar.
Neutropenic mice lungs were infected with 0.04 mL (0.02 mL/nare) of ˜4.17×10^6 CFU/mL (˜1.67×10^5 CFU/mouse) of A. fumigatus AF293 by intranasal (IN) instillation under temporary 2.5% isoflurane induced anesthesia.
Preparation of Test Articles. Micafungin (Mycamine, Astellas) was provided as a 50 mg vial (Lot 02323002, expiry 08/2017) and was prepared as per manufacturer's instructions by adding 5 mL saline for injection (SFI) directly into the vial to make up a 10 mg/mL stock solution. This solution was then diluted further in SFI to a working concentration of 0.5 mg/mL. […] It was prepared fresh once and stored at 4° C. until required.
Posaconazole (Noxafil 40 mg/mL oral suspension, Merck Sharp & Dohme Limited) was provided as a 40 mg/mL oral suspension (Lot N00801, expiry 04/2019). This suspension was then diluted further in water for infection (WFI) to a working concentration of 0.2 and 1 mg/mL. The suspension was administered orally (PO) at 10 mL/kg for 2 and 10 mg/kg doses respectively, was prepared fresh once and stored at 4° C. until required.
Test article CD101 stock was prepared at 6 mg/mL in 10% DMSO/1% Tween 20 diluent. A clear non particulate solution was obtained following gentle mixing. […] All doses were administered IP at 10 mL/kg. The study doses were kept at 4° C. until required.
Treatment. For this study, treatments were initiated on Day 1 pre infection according to treatment groups outlined in Table 22. A total of 36 mice (6/treatment group) were used in the study.
Endpoints. The primary endpoint for this study was survival within agreed ethical limits (>20% weight loss, severe hypothermia <34° C., inability to reach food or drink, severe hunching). Mice were monitored by daily weight measurements with observations as frequently as clinical condition required.
Mice presenting with severe clinical deterioration were humanely euthanized using an overdose of pentobarbitone administered by IP injection following clinical assessment and the time of death was recorded. Animal carcasses were stored at −20° C. before quantitative assessment of burden.
Ten days post infection all surviving animals were weighed and had their clinical condition assessed prior to being euthanized. Final survival numbers were recorded and analysed as described below and carcasses frozen at −20° C. prior to further processing.
Lung burden. A secondary endpoint for the study was terminal lung tissue burden. Immediately following confirmation of death, carcasses were frozen at −20° C. prior to tissue dissection and processing. The frozen carcasses were thawed at room temperature, the lungs removed and placed into pre-weighed bead-beating tubes containing 2 mL of PBS and subjected to mechanical disruption. […]

What does the source list for `CCCCCOc1ccc(-c2ccc(-c3ccc(C(=O)N[C@H]4C[C@@H](O)[C@@H](O)NC(=O)[C@@H]5[C@@H](O)[C@@H](C)CN5C(=O)[C@H]([C@@H](C)O)NC(=O)[C@H]([C@H](O)[C@@H](O)c5ccc(O)cc5)NC(=O)[C@@H]5C[C@@H](O)CN5C(=O)[C@H]([C@@H](C)O)NC4=O)cc3)cc2)cc1` [Anidulafungin, anidulafungin, reference compound] ({pTerphenylCO(4''-OnC5H11)}-[Orn(4R-OH,5R-OH)]T[Hyp][hTyr(3S-OH,4S-OH)]T[Pro(3S-OH,4S-Me)]; lactam 1-C)?
MIC ([1]; strain 98-17): 0.03 µg/mL (≈ 0.0263 µM); MIC ([1]; strain 98-210): 0.015 µg/mL (≈ 0.0132 µM); MIC ([1]; strain 580): 0.015 µg/mL (≈ 0.0132 µM); MIC ([1]; strain K-1): 0.015 µg/mL (≈ 0.0132 µM); MIC ([2]; strain 20423.072): 1 µg/mL (≈ 0.877 µM); MIC ([2]; strain 20477.048): 2 µg/mL (≈ 1.75 µM); MIC ([2]; strain 20519.069): 4 µg/mL (≈ 3.51 µM); MIC ([3]; strain 5592, read-out: MIC): 0.06 µg/mL (≈ 0.0526 µM); MIC ([3]; strain 10956 (FKS2_HS1_F659V)): 1 µg/mL (≈ 0.877 µM); MIC ([3]; strain 35315, read-out: MIC): 0.25 µg/mL (≈ 0.219 µM)

For `CC[C@@H]([C@H](C)O)n1ncn(-c2ccc(N3CCN(c4ccc(OC[C@@H]5CO[C@@](Cn6cncn6)(c6ccc(F)cc6F)C5)cc4)CC3)cc2)c1=O` [Posaconazole, posaconazole], which survival rate ([4]; 2 mg/kg PO one day prior to infection, 10 days) is on record?
Its survival rate is “no survivors”.

What about the survival rate ([4]; 10 mg/kg PO one day prior to infection, vs control) of the same compound?
The survival rate was “statistically-significant increase in survival rate relative to control”.

And the “Mean Survival” value ([5]; 2 mg/kg PO once, Day −1)?
Its value is 77.5 h.

And the “Median Survival” value ([5]; 2 mg/kg PO once, Day −1)?
The value was 69.0 h.

And the “survival time post infection, range” value ([5]; 2 mg/kg PO once, Day −1)?
Its value is 69 to 114 h.

What about the “survival vs vehicle (conclusion)” value ([5]; 2 mg/kg once one day pre-infection) of the same compound?
The value was “did not show any improvement in survival”.

And the “Mean Survival” value ([5]; 10 mg/kg PO once, Day −1)?
Its value is 212 h and 211.5 h.

What about the “Median Survival” value ([5]; 10 mg/kg PO once, Day −1) of the same compound?
The value was “could not be estimated; also recorded: cannot estimate”.

What about the “survival time post infection, range” value ([5]; 10 mg/kg PO once, Day −1) of the same compound?
The value was 69 to 240 h.

What about the “mice that survived to the end of the study” value ([5]; 10 mg/kg PO once, Day −1, 6 mice per group, 10 days) of the same compound?
Its value is 5 mice.

And the “mice surviving to the end of the study” value ([5]; 10 mg/kg once 1 day pre-infection)?
The value was > 80%.

What about the “Group Geometric mean” value ([5]; 2 mg/kg PO Day −1) of the same compound?
The value was 1.14 × 10^4 CFU/g.

What about the “Log10 Group Geometric mean” value ([5]; 2 mg/kg PO Day −1) of the same compound?
Its value is 4.06 CFU/g.

What about the “Log10 reduction from vehicle control” value ([5]; 2 mg/kg PO Day −1) of the same compound?
Its value is 0.11 CFU/g.

What about the “Group Geometric mean” value ([5]; 10 mg/kg PO Day −1) of the same compound?
The value was 2.75 × 10^3 CFU/g.

What about the “Log10 Group Geometric mean” value ([5]; 10 mg/kg PO Day −1) of the same compound?
The value was 3.44 CFU/g.

And the “Log10 reduction from vehicle control” value ([5]; 10 mg/kg PO Day −1)?
Its value is 0.73 CFU/g.
